Test results as given in ChEMBL document CHEMBL1201862, “PubChem BioAssay data set” (2004).
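In this assay, cells in 96-well plates receive the compound at five concentrations for 48 hours. Endpoints are linearly interpolated between the surrounding concentrations. Here, GI50 denotes the concentration required for 50% inhibition of growth.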 The source made the active and inactive calls. Cut-off read from the data, not from the text of the source: active = GI50 up to about 1.1 µM and inactive = higher.

Assays:
Assay in all cases: growth of human tumour cells (NCI), 48 h
HOP-18 = tested on: HOP-18
RXF 631 = tested on: RXF 631
XF498 = tested on: XF498
M19-MEL = tested on: M19-MEL
LXFL 529 = tested on: LXFL 529
KM-20L2 = tested on: KM-20L2
SNB-78 = tested on: SNB-78
DMS-273 = tested on: DMS-273
DMS-114 = tested on: DMS-114

Compound | GI50 (HOP-18) | GI50 (RXF 631) | GI50 (XF498) | GI50 (M19-MEL) | GI50 (LXFL 529) | GI50 (KM-20L2) | GI50 (SNB-78) | GI50 (DMS-273) | GI50 (DMS-114)
CC(C)CS(=O)(=O)/C(=C(\c1ccc(Br)cc1)S(=O)(=O)CC(C)C)c1ccc(Br)cc1 | > 100 µM (inactive) | > 100 µM (inactive) | > 100 µM (inactive) | > 100 µM (inactive) | > 100 µM (inactive) | > 100 µM (inactive) | 97.7 µM (inactive) | > 100 µM (inactive) | 
O=C(O)c1ccccc1[Se][Se]c1ccccc1C(=O)O | 23.2 µM (inactive) | 28.4 µM (inactive) | 70 µM (inactive) | 41.4 µM (inactive) |  | 25.8 µM (inactive) |  | 66.1 µM (inactive) | 32.3 µM (inactive)
COc1ccc2cc1Oc1ccc(cc1)CC1c3cc4c(cc3CCN1C)Oc1c(OC)cc3c(c1O4)C(C2)N(C)CC3 (stereo not given) |  | 4.99 µM (inactive) | 1.94 µM (inactive) | 4.01 µM (inactive) | 2 µM (inactive) | 2.55 µM (inactive) | 17.6 µM (inactive) | 1.63 µM (inactive) | 
CCOC(=O)/C(I)=C/c1cc(OC)c(OC)c(OC)c1 | 11.6 µM (inactive) |  | 2.92 µM (inactive) | 4.12 µM (inactive) | 10.4 µM (inactive) | 3.21 µM (inactive) | 28.2 µM (inactive) | 6.68 µM (inactive) | 2.92 µM (inactive)
[O-][S+]1c2ccccc2N=C(c2cccc3ccccc23)CC1c1cccc2ccccc12 (stereo not given) | 12.2 µM (inactive) | 36.4 µM (inactive) | 20.6 µM (inactive) | 2.01 µM (inactive) | 17.5 µM (inactive) | 36.3 µM (inactive) | 39 µM (inactive) | 29.6 µM (inactive) | 16.5 µM (inactive)
C1CN2CCO[SiH](O1)OCC2 | > 100 µM (inactive) |  |  | > 100 µM (inactive) | > 100 µM (inactive) | > 100 µM (inactive) | > 100 µM (inactive) | > 100 µM (inactive) | > 100 µM (inactive)
O=c1[nH]c(=O)n(C2CC(O)C(CO)O2)cc1C#Cc1cc(F)cc(F)c1 (stereo not given) | 24.7 µM (inactive) | > 100 µM (inactive) | > 100 µM (inactive) | > 100 µM (inactive) | > 100 µM (inactive) | > 10 µM (inactive) | > 100 µM (inactive) | > 100 µM (inactive) | > 100 µM (inactive)
COC(=O)c1nc(C(=O)OC)c2c([nH]c3ccccc32)c1C(=O)OC | < 0.01 µM (active) |  | 35.2 µM (inactive) |  | 74.5 µM (inactive) |  | > 100 µM (inactive) | 60 µM (inactive) | 49.3 µM (inactive)
COc1ccc(/C=C2\CCC(CCN(C)C)(C3=CCCC3)C2=O)cc1Br (stereo not given) | 12.4 µM (inactive) | 14.7 µM (inactive) | 3.24 µM (inactive) | 2.93 µM (inactive) | 4.71 µM (inactive) | 1.59 µM (inactive) | 9.02 µM (inactive) | 3.78 µM (inactive) | 4.32 µM (inactive)
CS(=O)(=O)c1c(N)c2nc(Cl)cn2c2nc3ccccc3nc12 |  | > 100 µM (inactive) | > 100 µM (inactive) | > 100 µM (inactive) | > 100 µM (inactive) | > 100 µM (inactive) | > 100 µM (inactive) | > 100 µM (inactive) | > 100 µM (inactive)
CCOC(=O)NC(=O)c1cn(CCCOC(=O)CCCCCCCCCCC(=O)OCCCn2cc(C(=O)NC(=O)OCC)c(=O)n(C)c2=O)c(=O)n(C)c1=O | > 100 µM (inactive) |  | > 100 µM (inactive) | > 100 µM (inactive) | > 100 µM (inactive) |  | > 100 µM (inactive) | > 100 µM (inactive) | > 100 µM (inactive)
C=CCC(OCCOCC)c1cc(OCCOCC)ccc1OC (stereo not given) |  |  | > 100 µM (inactive) | > 100 µM (inactive) | > 100 µM (inactive) |  | > 100 µM (inactive) | > 100 µM (inactive) | 
O=C1N=C(Nc2ccccc2Cl)SC1C(=O)Nc1ccc([N+](=O)[O-])cc1[N+](=O)[O-] (stereo not given) | 22 µM (inactive) | > 100 µM (inactive) | > 100 µM (inactive) | > 100 µM (inactive) | > 100 µM (inactive) | > 100 µM (inactive) | > 100 µM (inactive) | > 100 µM (inactive) | 75.3 µM (inactive)
O=C1c2ccccc2C(=O)c2c(NCCNCCO)ccc(O)c21 | 9.27 µM (inactive) |  | 4.89 µM (inactive) | 2.82 µM (inactive) | 3.69 µM (inactive) | 2.94 µM (inactive) | 4.61 µM (inactive) | 2.22 µM (inactive) | 4.59 µM (inactive)
Cc1ccc(C)c(NC(=O)CC/C(=N\NC(=O)C(=O)NN)C(C)C(=O)c2ccc(O)cc2)c1 (stereo not given) | > 100 µM (inactive) |  |  | > 100 µM (inactive) | > 100 µM (inactive) | > 100 µM (inactive) | > 100 µM (inactive) | > 100 µM (inactive) | 
Cn1c2cc(O)cc(O)c2c(=O)c2c([N+](=O)[O-])cccc21 | > 100 µM (inactive) | > 100 µM (inactive) |  |  | > 100 µM (inactive) | > 100 µM (inactive) | > 100 µM (inactive) | > 100 µM (inactive) | > 100 µM (inactive)
COc1ccc(/N=N/c2c(N)nn(C)c2N)cc1 | 92.3 µM (inactive) | > 100 µM (inactive) |  | > 100 µM (inactive) | > 100 µM (inactive) | > 100 µM (inactive) | > 100 µM (inactive) | > 100 µM (inactive) | > 100 µM (inactive)
CN(N=O)C(=O)N[C@H]1C(O)O[C@H](CO)[C@@H](O)[C@@H]1O (stereo not given in full) | 222 µM (inactive) |  | 557 µM (inactive) | 475 µM (inactive) | > 750 µM (inactive) | > 750 µM (inactive) | 545 µM (inactive) | 528 µM (inactive) | 504 µM (inactive)
O=C1[C@H]2ON(c3ccccc3)C(c3ccc(Cl)cc3)[C@H]2C(=O)N1c1ccc(Cc2ccc(N3C(=O)[C@@H]4ON(c5ccccc5)C(c5ccc(Cl)cc5)[C@@H]4C3=O)cc2)cc1 (stereo not given in full) | > 100 µM (inactive) | > 100 µM (inactive) |  | > 100 µM (inactive) | 94.8 µM (inactive) | > 100 µM (inactive) | > 100 µM (inactive) | > 100 µM (inactive) | > 100 µM (inactive)
O=C1C=CC2(C=C1)C[C@H](NC(=O)OCc1ccccc1)C(=O)O2 | 16.7 µM (inactive) | 19.6 µM (inactive) | 17.8 µM (inactive) | 18.4 µM (inactive) | 12.1 µM (inactive) | 19 µM (inactive) | 24.5 µM (inactive) | 18.3 µM (inactive) | 20.3 µM (inactive)
COC(=O)[C@@]1(C)C(=O)CC[C@@H]1C=O |  |  | > 100 µM (inactive) | > 100 µM (inactive) | > 100 µM (inactive) | > 100 µM (inactive) | > 100 µM (inactive) |  | > 100 µM (inactive)
CC(=O)Nc1ccc(S(=O)(=O)Nc2cnc3ccccc3n2)cc1 | > 100 µM (inactive) |  | > 100 µM (inactive) | > 100 µM (inactive) | > 100 µM (inactive) | > 100 µM (inactive) |  | > 100 µM (inactive) | > 100 µM (inactive)
O=C(/C=C/c1ccccc1)c1ccc(NCc2nc3ccccc3[nH]2)cc1 | 2.34 µM (inactive) |  | 7.6 µM (inactive) | 4.41 µM (inactive) | 2.83 µM (inactive) | 2.9 µM (inactive) | 4.9 µM (inactive) | 4.5 µM (inactive) | 2.56 µM (inactive)
CCCCCC(/C=C/[C@@H]1[C@H]2CC(=O)O[C@H]2C[C@H]1N1CCOCC1)OC1CCCO1 (stereo not given in full) | > 100 µM (inactive) |  |  | > 100 µM (inactive) | > 100 µM (inactive) | > 100 µM (inactive) | > 100 µM (inactive) | > 100 µM (inactive) | > 100 µM (inactive)
[O-][S+]1Cc2ccccc2CS1 (stereo not given) | 33 µM (inactive) | 48.9 µM (inactive) | 17.9 µM (inactive) | 17 µM (inactive) | 15.1 µM (inactive) | 25.3 µM (inactive) | 14.7 µM (inactive) | 14.2 µM (inactive) | 
CC(=O)OCCOCNC(=S)N/N=C(\C)c1ccco1 | > 100 µM (inactive) | > 100 µM (inactive) |  | > 100 µM (inactive) | > 100 µM (inactive) | > 100 µM (inactive) | > 100 µM (inactive) | > 100 µM (inactive) | > 100 µM (inactive)
COc1ccc2[nH]c3c(c2c1)[C@H](C)C[C@@H]1C(=O)N(c2ccccc2)C(=O)[C@H]31 | 20.9 µM (inactive) | 20.5 µM (inactive) | 24.5 µM (inactive) | 36.7 µM (inactive) | 29.6 µM (inactive) | 62.8 µM (inactive) |  | 37.8 µM (inactive) | 33.8 µM (inactive)
